In brackets after ≈: the same amount, converted by molar mass.

One assay relates to S. aureus A798. As to the kind of experiment: MIC by broth microdilution (NCCLS), S. aureus A798. In kind it is cell-based, Staphylococcus aureus. The following applies: strain A798, cation-adjusted Mueller-Hinton Broth, pH 7.2-7.3; for MIC: Staphylococcus aureus. As for the experimental part: (§1) These assays have been performed following the description given in “Methods for dilution Antimicrobial Susceptibility Tests for Bacteria that Grow Aerobically, 4th ed.; Approved standard: NCCLS Document M7-A4; National Committee for Clinical Laboratory Standards: Villanova, Pa., USA, 1997”. Minimal inhibitory concentrations (MICs; mg/l) were determined in cation-adjusted Mueller-Hinton Broth (BBL) by a microdilution method following NCCLS guidelines (National Committee for Clinical Laboratory Standards. Methods for Dilution Antimicrobial Susceptibility). The pH of the test medium was 7.2-7.3.

In the next assay the test system is P. aeruginosa A1124. As to the kind of experiment: MIC by broth microdilution (NCCLS), P. aeruginosa A1124. In kind it is cell-based, Pseudomonas aeruginosa. The following applies: strain A1124, cation-adjusted Mueller-Hinton Broth, pH 7.2-7.3; for MIC: Pseudomonas aeruginosa. How it is done:
as §1

In a further assay the test system is A. baumanii T6474. The assay can be described thus: MIC by broth microdilution (NCCLS), A. baumanii T6474. In kind it is cell-based, Acetinobacter baumannii. The settings on record: strain T6474, cation-adjusted Mueller-Hinton Broth, pH 7.2-7.3; for MIC: Acinetobacter baumannii. As for the experimental part:
as §1
On the technique in general: Broth dilution looks for growth in wells or tubes with falling amounts of substance.

As to `COC(=O)c1ccc(CC(N)[C@H]2CC[C@H](NC/C=C/c3cc(F)ccc3F)CC2)c2nc(OC)ccc12` (mixture of isomers) [Example 5, 8-[(2RS)-2-amino-2-trans-{4-[(E)-3-(2,5-difluoro-phenyl)-allylamino]-cyclohexyl}-ethyl]-2-methoxy-quinoline-5-carboxylic acid methyl ester], the “MIC S. aureus A798” value against S. aureus A798 (second table, all Examples) was determined as 0.125 µg/mL (≈ 0.245 µM).
What is called MIC is the lowest concentration found to suppress growth. A low value points to greater potency. In the case of `COc1ccc2nccc(CC(N)[C@H]3CC[C@H](NCc4ccc5c(n4)NC(=O)CO5)CC3)c2n1` (mixture of isomers) [Example 9, 6-(trans-{4-[(1RS)-1-amino-2-(6-methoxy-[1,5]naphthyridin-4-yl)-ethyl]-cyclohexylamino}-methyl)-4H-pyrido[3,2-b][1,4]oxazin-3-one], the lowest concentration to inhibit growth with S. aureus A798 (second table, all Examples) (MIC) was 0.5 µg/mL (≈ 1.08 µM).
Still for that read-out and setting: then `COc1ccc2nccc(C[C@H](N)[C@H]3CC[C@H](NCc4ccc5c(n4)NC(=O)CS5)CC3)c2n1` [Example 2, 6-(trans-{4-[(1S)-1-amino-2-(6-methoxy-[1,5]naphthyridin-4-yl)-ethyl]-cyclohexylamino}-methyl)-4H-pyrido[3,2-b][1,4]thiazin-3-one], with 0.125 µg/mL (≈ 0.261 µM); and `COc1ccc2nccc([C@@H](O)[C@H](N)[C@H]3CC[C@H](NC/C=C/c4cc(F)ccc4F)CC3)c2n1` (relative stereo) [Example 18, trans-(1R*,2R*)-2-amino-2-{4-[(E)-3-(2,5-difluoro-phenyl)-allylamino]-cyclohexyl}-1-(6-methoxy-[1,5]naphthyridin-4-yl)-ethanol], with no more than 0.031 µg/mL; and `COc1ccc2ncc(F)c(CC(N)[C@H]3CC[C@H](NCc4ccc5c(n4)NC(=O)CS5)CC3)c2c1` (mixture of isomers) [Example 10, trans-6-({4-[(1RS)-1-amino-2-(3-fluoro-6-methoxy-quinolin-4-yl)-ethyl]-cyclohexylamino}-methyl)-4H-pyrido[3,2-b][1,4]thiazin-3-one], with 0.031 µg/mL (≈ 0.0625 µM).
On to `COc1ccc2nccc(CC(N)[C@H]3CC[C@H](NCc4ccc5c(n4)NC(=O)CO5)CC3)c2c1` (mixture of isomers) [Example 21, trans-6-({4-[(1RS)-amino-2-(6-methoxy-quinolin-4-yl)-ethyl]-cyclohexylamino}-methyl)-4H-pyrido[3,2-b][1,4]oxazin-3-one], for which, in the assay with S. aureus A798 (second table, all Examples), the “MIC S. aureus A798” value worked out at 0.5 µg/mL (≈ 1.08 µM).
`COc1ccc2ncc(F)c(CC(N)[C@H]3CC[C@H](NCc4ccc5c(c4)NC(=O)CO5)CC3)c2c1` (mixture of isomers) [Example 16, trans-6-({4-[(1RS)-1-amino-2-(3-fluoro-6-methoxy-quinolin-4-yl)-ethyl]-cyclohexylamino}-methyl)-4H-benzo[1,4]oxazin-3-one] yielded an MIC with S. aureus A798 (second table, all Examples) of 0.063 µg/mL (≈ 0.132 µM).
The same measure, in the same setting: under `COc1ccc2nccc(CC(N)[C@H]3CC[C@H](NCc4ccc5c(c4)NC(=O)CO5)CC3)c2c1` (mixture of isomers) [Example 19, trans-6-({4-[(1RS)-1-amino-2-(6-methoxy-quinolin-4-yl)-ethyl]-cyclohexylamino}-methyl)-4H-benzo[1,4]oxazin-3-one] stands 1 µg/mL (≈ 2.17 µM); under `COc1cnc2cccc(CC(N)[C@H]3CC[C@H](NCc4ccc5c(n4)NC(=O)CS5)CC3)c2n1` (mixture of isomers) [Example 7, 6-(trans-{4-[(1RS)-1-amino-2-(3-methoxy-quinoxalin-5-yl)-ethyl]-cyclohexylamino}-methyl)-4H-pyrido[3,2-b][1,4]thiazin-3-one], 0.063 µg/mL (≈ 0.132 µM); under `COc1ccc2ncc(F)c(CC(N)[C@H]3CC[C@H](NC/C=C/c4cc(F)ccc4F)CC3)c2c1` (mixture of isomers) [Example 12, trans-{4-[(1RS)-1-amino-2-(3-fluoro-6-methoxy-quinolin-4-yl)-ethyl]-cyclohexyl}-[3-(E)-(2,5-difluoro-phenyl)-allyl]-amine], no more than 0.031 µg/mL.
`COc1ccc2nccc(CC(N)[C@H]3CC[C@H](NCc4ccc5c(n4)NC(=O)CS5)CC3)c2c1` (mixture of isomers) [Example 20, trans-6-({4-[(1RS)-amino-2-(6-methoxy-quinolin-4-yl)-ethyl]-cyclohexylamino}-methyl)-4H-pyrido[3,2-b][1,4]thiazin-3-one]: the “MIC S. aureus A798” value with S. aureus A798 (second table, all Examples) amounted to 0.125 µg/mL (≈ 0.262 µM).
As for `COc1ccc2nccc([C@@H](O)[C@H](N)[C@H]3CC[C@H](NCc4ccc5c(n4)NC(=O)CS5)CC3)c2n1` (relative stereo) [Example 3, 6-(trans-{4-[(1R*,2R*)-1-amino-2-hydroxy-2-(6-methoxy-[1,5]naphthyridin-4-yl)-ethyl]-cyclohexylamino}-methyl)-4H-pyrido[3,2-b][1,4]thiazin-3-one], in the assay on S. aureus A798 (second table, all Examples), the minimum inhibitory concentration (MIC) was 0.125 µg/mL (≈ 0.253 µM).
With `COc1ccc2nccc(C[C@@H](N)[C@H]3CC[C@H](NCc4ccc5c(n4)NC(=O)CS5)CC3)c2n1` [Example 1, 6-(trans-{4-[(1R)-1-amino-2-(6-methoxy-[1,5]naphthyridin-4-yl)-ethyl]-cyclohexylamino}-methyl)-4H-pyrido[3,2-b][1,4]thiazin-3-one], the MIC is 4 µg/mL (≈ 8.36 µM) in the assay with S. aureus A798 (table of typical results), 0.063 µg/mL (≈ 0.132 µM) with P. aeruginosa A1124 and 32 µg/mL (≈ 66.9 µM) in the assay with A. baumanii T6474. Besides, the “MIC S. aureus A798” value against S. aureus A798 (second table, all Examples) amounted to 4 µg/mL (≈ 8.36 µM).
With `COc1ccc2c(CO)ccc(CC(N)[C@H]3CC[C@H](NC/C=C/c4cc(F)ccc4F)CC3)c2n1` (mixture of isomers) [Example 6, [8-((2RS)-2-amino-2-trans-{4-[3-(E)-(2,5-difluoro-phenyl)-allylamino]-cyclohexyl}-ethyl)-2-methoxy-quinolin-5-yl]-methanol], the “MIC S. aureus A798” value in the assay with S. aureus A798 (second table, all Examples) was 0.125 µg/mL (≈ 0.26 µM); against S. aureus A798 (table of typical results) it was 0.125 µg/mL (≈ 0.26 µM). For the same compound, the “MIC P. aeruginosa A1124” value in the assay with P. aeruginosa A1124 worked out at 0.5 µg/mL (≈ 1.04 µM). In addition, the “MIC A. baumanii T6474” value with A. baumanii T6474 was found to be 16 µg/mL (≈ 33.2 µM).
In the assay with S. aureus A798 (second table, all Examples), `COc1ccc2ncc(F)c(CC(N)[C@H]3CC[C@H](NCc4ccc5c(n4)NC(=O)CS5)CC3)c2n1` (mixture of isomers) [Example 14, trans-6-({4-[(1RS)-1-amino-2-(3-fluoro-6-methoxy-[1,5]naphthyridin-4-yl)-ethyl]-cyclohexylamino}-methyl)-4H-pyrido[3,2-b][1,4]thiazin-3-one] registered a minimal inhibitory concentration (MIC) of no more than 0.031 µg/mL.
The same measure, in the same setting: under `COc1cnc2cccc(CC(N)[C@H]3CC[C@@H](NCc4ccc5c(n4)NC(=O)CS5)CC3)c2n1` (mixture of isomers) [Example 8, 6-(cis-{4-[(1RS)-1-amino-2-(3-methoxy-quinoxalin-5-yl)-ethyl]-cyclohexylamino}-methyl)-4H-pyrido[3,2-b][1,4]thiazin-3-one] stands 1 µg/mL (≈ 2.09 µM).
Take `COc1ccc2nccc([C@@H](O)[C@H](N)[C@H]3CC[C@H](NCc4ccc5c(c4)OCCO5)CC3)c2n1` (relative stereo) [Example 17, trans-(1R*,2R*)-2-amino-2-{4-[(2,3-dihydro-benzo[1,4]dioxin-6-ylmethyl)-amino]-cyclohexyl}-1-(6-methoxy-[1,5]naphthyridin-4-yl)-ethanol]: the minimum inhibitory concentration (MIC) against S. aureus A798 (table of typical results) was 0.063 µg/mL (≈ 0.136 µM); against P. aeruginosa A1124, 2 µg/mL (≈ 4.31 µM); against A. baumanii T6474 it was 16 µg/mL (≈ 34.4 µM). The “MIC S. aureus A798” value in the assay with S. aureus A798 (second table, all Examples) amounted to 0.063 µg/mL (≈ 0.136 µM).
Take `COc1ccc2ncc(F)c(CC(N)[C@H]3CC[C@@H](NCc4ccc5c(n4)NC(=O)CS5)CC3)c2n1` (mixture of isomers) [Example 15, cis-6-({4-[(1RS)-1-amino-2-(3-fluoro-6-methoxy-[1,5]naphthyridin-4-yl)-ethyl]-cyclohexylamino}-methyl)-4H-pyrido[3,2-b][1,4]thiazin-3-one]: the minimal inhibitory concentration (MIC) against S. aureus A798 (second table, all Examples) was found to be 0.25 µg/mL (≈ 0.503 µM).
On the same count and under the same terms, then `COc1ccc2nccc(CC(N)[C@H]3CC[C@H](NCC=Cc4cc(F)ccc4F)CC3)c2n1` (mixture of isomers) [Example 4, trans-{4-[(1RS)-1-amino-2-(6-methoxy-[1,5]naphthyridin-4-yl)-ethyl]-cyclohexyl}-[3-(2,5-difluoro-phenyl)-allyl]-amine], with 0.063 µg/mL (≈ 0.139 µM).
As for `COc1ccc2ncc(F)c(CC(N)[C@H]3CC[C@@H](NCc4ccc5c(n4)NC(=O)CS5)CC3)c2c1` (mixture of isomers) [Example 11, cis-6-({4-[(1RS)-1-amino-2-(3-fluoro-6-methoxy-quinolin-4-yl)-ethyl]-cyclohexylamino}-methyl)-4H-pyrido[3,2-b][1,4]thiazin-3-one], the minimum inhibitory concentration (MIC) in the assay with S. aureus A798 (table of typical results) was found to be 0.5 µg/mL (≈ 1.01 µM); against P. aeruginosa A1124, 0.125 µg/mL (≈ 0.252 µM); in the assay on A. baumanii T6474, 4 µg/mL (≈ 8.07 µM). In addition, the “MIC S. aureus A798” value against S. aureus A798 (second table, all Examples) turned out to be 0.5 µg/mL (≈ 1.01 µM).
Regarding `COc1ccc2ncc(F)c(CC(N)[C@H]3CC[C@@H](NC/C=C/c4cc(F)ccc4F)CC3)c2c1` (mixture of isomers) [Example 13, cis-{4-[(1RS)-1-amino-2-(3-fluoro-6-methoxy-quinolin-4-yl)-ethyl]-cyclohexyl}-[3-(E)-(2,5-difluoro-phenyl)-allyl]-amine], in the assay with S. aureus A798 (second table, all Examples), the minimum inhibitory concentration (MIC) turned out to be 0.063 µg/mL (≈ 0.134 µM).

The values are drawn from patent publication US8044044B2, “4-(1-amino-ethyl)-cyclohexylamine derivatives” (Actelion Pharmaceutical Ltd., priority 2006, dated 2011).
